Drawing on patent US9951089B2, “Methods of treating a fatty acid amide hydrolase-mediated condition” (INFINITY PHARMACEUTICALS, INC., priority 2010, dated 2018), this text covers Ki for one compound.

What is called Ki is the equilibrium dissociation constant of an inhibitor or competing ligand from its target.

The assay addresses T1, human FAAH (Homo sapiens, UniProt O00519).
T1 construct: The clone was in an ORIGENE® pCMV6-XL5 with an insert size of ˜2.2 kb
T1 sequence (O00519 50-579 limits assumed): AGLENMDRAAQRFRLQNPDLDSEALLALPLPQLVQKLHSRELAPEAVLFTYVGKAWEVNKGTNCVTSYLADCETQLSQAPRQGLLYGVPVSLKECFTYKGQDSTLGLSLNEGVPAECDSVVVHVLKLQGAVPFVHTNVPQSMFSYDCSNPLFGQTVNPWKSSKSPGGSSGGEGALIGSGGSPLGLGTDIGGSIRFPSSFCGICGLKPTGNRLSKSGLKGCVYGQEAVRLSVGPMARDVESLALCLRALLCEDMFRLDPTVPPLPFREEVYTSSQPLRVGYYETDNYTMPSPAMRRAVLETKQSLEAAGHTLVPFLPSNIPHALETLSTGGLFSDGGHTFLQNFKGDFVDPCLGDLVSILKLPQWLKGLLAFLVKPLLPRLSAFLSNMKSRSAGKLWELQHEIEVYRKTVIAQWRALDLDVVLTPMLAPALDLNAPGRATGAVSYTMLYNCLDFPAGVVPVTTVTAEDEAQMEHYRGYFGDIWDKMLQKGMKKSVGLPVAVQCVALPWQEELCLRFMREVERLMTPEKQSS
Kind of assay: Ki determination, human FAAH (AMC-arachidonoyl amide hydrolysis, fluorescence end point). In kind it is biochemical. The following applies: hFAAH 108 μg/mL, substrate 20 μM, 30 min preincubation, 4 hours at room temperature. The source says:
A human FAAH (hFAAH) cDNA clone was purchased from Origen (Catalog #TC 119221, Accession #NM_001441.1). The clone was in an ORIGENE® pCMV6-XL5 with an insert size of ˜2.2 kb. Sequencing of the clone indicated a conservative mutation of K48R. This point mutation is possibly an allelic difference, and is far from the active site and unlikely to effect the activity. This plasmid was amplified in E. coli and isolated by precipitation. […]
Frozen cell pellets were thawed on ice and resuspended in: 12.5 mM HEPES (pH 8.0), 100 mM NaCl, and 1 mM EDTA at a ratio of 25 mL per gram of cells. […] Total protein concentrations were determined using a Bio-Rad Protein Assay (Protein Assay Dye Reagent Concentrate, cat#500-0006) ref. 5. […]
The Ki of a test compound was determined for rat and human FAAH by measuring the dose dependent inhibition of AMC-Arachidonoyl amide hydrolysis as an end point read. Assays were carried out in Corning COSTAR® 384 well flat black bottom microtiter plates (Catalog #3654) and monitored in an Envision 2100 multilabel plate reader (Perkin Elmer-Wallac), with a 355 nm (40 nm band pass) excitation filter and 460 nm (25 nm bandpass) emission filter. […]

For `OB(O)c1ccc(-c2ccc(B(O)O)c(F)c2)cc1F` [IMP-4], affinity was put at a Ki of 0.0141 µM.
